Data as given in patent US12077503B2, “Substituted cyclic amides and their use as herbicides” (FMC CORPORATION, priority 2015, dated 2024).

What was measured:
Assay type in all cases: in vivo
Kochia (Kochia scoparia) [1] = assay: Test A preemergence; settings: Bassia scoparia, pre-emergence, 240 h, Preemergence
Summary of the method: (§1)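 Preemergence soil spray on seeded pots or post-emergence spray on 1–2 leaf plants, in loam–sand blend. Greenhouse ~10 d. Visual rating 0–100 against untreated plants.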

[2] = test system: barnyardgrass (Echinochloa crus-galli); assay: Test A preemergence; settings: Echinochloa crus-galli, pre-emergence, 240 h, Preemergence
Summary of the method: as §1

[3] = test system: giant foxtail (Setaria faberii); assay: Test A preemergence; settings: Setaria faberi, pre-emergence, 240 h, Preemergence
Summary of the method: as §1

[4] = test system: pigweed (Amaranthus retroflexus); assay: Test A preemergence; settings: Amaranthus retroflexus, pre-emergence, 240 h, Preemergence
[5] = test system: ragweed (common ragweed, Ambrosia elatior); assay: Test A preemergence; settings: Ambrosia artemisiifolia, pre-emergence, 240 h, Preemergence
Summary of the method: as §1

[6] = test system: ryegrass, Italian (Italian ryegrass, Lolium multiflorum); assay: Test A preemergence; settings: Lolium multiflorum, pre-emergence, 240 h, Preemergence
Summary of the method: as §1

[7] = test system: Galium (catchweed bedstraw, Galium aparine); assay: Test A postemergence; settings: Galium, post-emergence, 240 h, Postemergence, read-out: Plant response rating, Galium
Summary of the method: as §1

Kochia (Kochia scoparia) [8] = assay: Test A postemergence; settings: Bassia scoparia, post-emergence, 240 h, Postemergence, read-out: Plant response rating, Kochia
Summary of the method: as §1

[9] = test system: barnyardgrass (Echinochloa crus-galli); assay: Test A postemergence; settings: Echinochloa crus-galli, post-emergence, 240 h, Postemergence, read-out: Plant response rating, Barnyardgrass
Summary of the method: as §1

[10] = test system: blackgrass (Alopecurus myosuroides); assay: Test A postemergence; settings: Alopecurus myosuroides, post-emergence, 240 h, Postemergence, read-out: Plant response rating, Blackgrass
Summary of the method: as §1

corn (Zea mays) = assay: Test A postemergence; settings: Zea mays, post-emergence, 240 h, Postemergence
Summary of the method: as §1

[11] = test system: giant foxtail (Setaria faberii); assay: Test A postemergence; settings: Setaria faberi, post-emergence, 240 h, Postemergence, read-out: Plant response rating, Foxtail, Giant
Summary of the method: as §1

[12] = test system: pigweed (Amaranthus retroflexus); assay: Test A postemergence; settings: Amaranthus retroflexus, post-emergence, 240 h, Postemergence, read-out: Plant response rating, Pigweed
Summary of the method: as §1

[13] = test system: ragweed (common ragweed, Ambrosia elatior); assay: Test A postemergence; settings: Ambrosia artemisiifolia, post-emergence, 240 h, Postemergence, read-out: Plant response rating, Ragweed
Summary of the method: as §1

[14] = test system: ryegrass, Italian (Italian ryegrass, Lolium multiflorum); assay: Test A postemergence; settings: Lolium multiflorum, post-emergence, 240 h, Postemergence, read-out: Plant response rating, Ryegrass, Italian
Summary of the method: as §1

[15] = test system: wheat (Triticum aestivum); assay: Test A postemergence; settings: Triticum aestivum, post-emergence, 240 h, Postemergence, read-out: Plant response rating, Wheat
Summary of the method: as §1

[16] = test system: barnyardgrass (Echinochloa crus-galli); assay: Test B flooded paddy test; settings: Echinochloa crus-galli, 250 g ai/ha, Flood; 0 to 100 scale where 0 is no effect and 100 is complete control; read-out: Barnyardgrass plant response rating
Summary of the method: (§2)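 Response scored visually against untreated controls, 0 = no effect and 100 = complete control, 13–15 d after treatment in the greenhouse. Compounds added to paddy water held 3 cm above soil surface. Treatment given at 2-leaf stage.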

[17] = test system: ducksalad (Heteranthera limosa); assay: Test B flooded paddy test; settings: Heteranthera limosa, 250 g ai/ha, Flood; 0 to 100 scale where 0 is no effect and 100 is complete control; read-out: Ducksalad plant response rating
Summary of the method: as §2

rice (Oryra sativa) = assay: Test B flooded paddy test; settings: Oryza sativa, 250 g ai/ha, Flood; 0 to 100 scale where 0 is no effect and 100 is complete control; read-out: Rice plant response rating
Summary of the method: as §2

[18] = test system: sedge, umbrella (small-flower umbrella sedge, Cyperus difformis); assay: Test B flooded paddy test; settings: Cyperus difformis, 250 g ai/ha, Flood; 0 to 100 scale where 0 is no effect and 100 is complete control; read-out: Sedge, Umbrella plant response rating
Summary of the method: as §2

[19] = 125 g ai/ha, visual injury after approximately 10 d, 0 to 100 scale where 0 is no effect and 100 is complete control
[20] = 31 g ai/ha, visual injury after approx. 10 d, 0 to 100 scale, 0 no effect, 100 complete control

## O=C(Nc1cccc(F)c1F)[C@H]1C(=O)N(C2CC2)CC[C@@H]1c1ccc(F)cc1 [Compound 1003]
Kochia (Kochia scoparia) [1]; 31 g ai/ha, 0 to 100 scale where 0 is no effect and 100 is complete control, read-out: Kochia plant response rating
  pest or weed control at 31 g/ha: 0%
Kochia (Kochia scoparia) [1]; 125 g ai/ha, visual injury rating after approximately 10 d, read-out: Kochia plant response rating (0 to 100 scale, 0 is no effect, 100 is complete control)
  pest or weed control at 125 g/ha: 0%
[2]; 125 g ai/ha, visual injury rating after approximately 10 d, read-out: Barnyardgrass plant response rating (0 to 100 scale, 0 is no effect, 100 is complete control)
  pest or weed control at 125 g/ha: 0%
[2]; 31 g ai/ha, 0 to 100 scale (0 no effect, 100 complete control), read-out: Plant response rating, Barnyardgrass
  pest or weed control at 31 g/ha: 0%
[3]; 125 g ai/ha, visual injury rating after approximately 10 d, read-out: Foxtail, Giant plant response rating (0 to 100 scale, 0 is no effect, 100 is complete control)
  pest or weed control at 125 g/ha: 60%
[3]; 31 g ai/ha, 0 to 100 scale (0 no effect, 100 complete control), read-out: Plant response rating, Foxtail, Giant
  pest or weed control at 31 g/ha: 0%
[4]; 31 g ai/ha, 0 to 100 scale where 0 is no effect and 100 is complete control, read-out: Pigweed plant response rating
  pest or weed control at 31 g/ha: 0%
[4]; 125 g ai/ha, visual injury rating after approximately 10 d, read-out: Pigweed plant response rating (0 to 100 scale, 0 is no effect, 100 is complete control)
  pest or weed control at 125 g/ha: 0%
[5]; 31 g ai/ha, 0 to 100 scale where 0 is no effect and 100 is complete control, read-out: Ragweed plant response rating
  pest or weed control at 31 g/ha: 0%
[5]; 125 g ai/ha, visual injury rating after approximately 10 d, read-out: Ragweed plant response rating (0 to 100 scale, 0 is no effect, 100 is complete control)
  pest or weed control at 125 g/ha: 0%
[6]; 31 g ai/ha, 0 to 100 scale where 0 is no effect and 100 is complete control, read-out: Ryegrass, Italian plant response rating
  pest or weed control at 31 g/ha: 0%
[6]; 125 g ai/ha, visual injury rating after approximately 10 d, read-out: Ryegrass, Italian plant response rating (0 to 100 scale, 0 is no effect, 100 is complete control)
  pest or weed control at 125 g/ha: 0%
[7]; [19]
  pest or weed control at 125 g/ha: 0%
[7]; [20]
  pest or weed control at 31 g/ha: 0%
Kochia (Kochia scoparia) [8]; [19]
  pest or weed control at 125 g/ha: 0%
Kochia (Kochia scoparia) [8]; [20]
  pest or weed control at 31 g/ha: 0%
[9]; [19]
  pest or weed control at 125 g/ha: 0%
[9]; [20]
  pest or weed control at 31 g/ha: 0%
[10]; [19]
  pest or weed control at 125 g/ha: 0%
[10]; [20]
  pest or weed control at 31 g/ha: 0%
Corn (Zea mays); [19]
  Corn plant response rating (crop injury, 0 = no effect, 100 = complete kill) at 125 g/ha: 0%
Corn (Zea mays); [20]
  Corn plant response rating (crop injury, 0 = no effect, 100 = complete kill) at 31 g/ha: 0%
[11]; [19]
  pest or weed control at 125 g/ha: 0%
[11]; [20]
  pest or weed control at 31 g/ha: 0%
[12]; [19]
  pest or weed control at 125 g/ha: 0%
[12]; [20]
  pest or weed control at 31 g/ha: 0%
[13]; [19]
  pest or weed control at 125 g/ha: 0%
[13]; [20]
  pest or weed control at 31 g/ha: 0%
[14]; [19]
  pest or weed control at 125 g/ha: 0%
[14]; [20]
  pest or weed control at 31 g/ha: 0%
[15]; [19]
  plant injury at 125 g/ha: 0%
[15]; [20]
  plant injury at 31 g/ha: 0%
[16]
  pest or weed control at 250 g/ha: 0%
[17]
  pest or weed control at 250 g/ha: 0%
Rice (Oryra sativa)
  pest or weed control at 250 g/ha: 0%
[18]
  pest or weed control at 250 g/ha: 0%
